The values that follow are results of earlier work, collected in patent US9132083B2, “Delivery system comprising a silicon-containing material” (SISAF Ltd., priority 2009, dated 2015).

Each structure is given as a SMILES string.

`[Na+].[O-][Si](O)(O)O` [Na^+(OSA)^− salt]: the pKa result was “about 6”.
